{
  "source": "patent US11697648B2",
  "about": "“Fused pyrimidine pyridinone compounds as JAK inhibitors” (THERAVANCE BIOPHARMA R&D IP, LLC, priority 2019, dated 2023)",
  "data": [
    {"molecular_target": "JAK3 (Homo sapiens (Human), UniProt P52333)", "sequence (P52333 whole entry)": "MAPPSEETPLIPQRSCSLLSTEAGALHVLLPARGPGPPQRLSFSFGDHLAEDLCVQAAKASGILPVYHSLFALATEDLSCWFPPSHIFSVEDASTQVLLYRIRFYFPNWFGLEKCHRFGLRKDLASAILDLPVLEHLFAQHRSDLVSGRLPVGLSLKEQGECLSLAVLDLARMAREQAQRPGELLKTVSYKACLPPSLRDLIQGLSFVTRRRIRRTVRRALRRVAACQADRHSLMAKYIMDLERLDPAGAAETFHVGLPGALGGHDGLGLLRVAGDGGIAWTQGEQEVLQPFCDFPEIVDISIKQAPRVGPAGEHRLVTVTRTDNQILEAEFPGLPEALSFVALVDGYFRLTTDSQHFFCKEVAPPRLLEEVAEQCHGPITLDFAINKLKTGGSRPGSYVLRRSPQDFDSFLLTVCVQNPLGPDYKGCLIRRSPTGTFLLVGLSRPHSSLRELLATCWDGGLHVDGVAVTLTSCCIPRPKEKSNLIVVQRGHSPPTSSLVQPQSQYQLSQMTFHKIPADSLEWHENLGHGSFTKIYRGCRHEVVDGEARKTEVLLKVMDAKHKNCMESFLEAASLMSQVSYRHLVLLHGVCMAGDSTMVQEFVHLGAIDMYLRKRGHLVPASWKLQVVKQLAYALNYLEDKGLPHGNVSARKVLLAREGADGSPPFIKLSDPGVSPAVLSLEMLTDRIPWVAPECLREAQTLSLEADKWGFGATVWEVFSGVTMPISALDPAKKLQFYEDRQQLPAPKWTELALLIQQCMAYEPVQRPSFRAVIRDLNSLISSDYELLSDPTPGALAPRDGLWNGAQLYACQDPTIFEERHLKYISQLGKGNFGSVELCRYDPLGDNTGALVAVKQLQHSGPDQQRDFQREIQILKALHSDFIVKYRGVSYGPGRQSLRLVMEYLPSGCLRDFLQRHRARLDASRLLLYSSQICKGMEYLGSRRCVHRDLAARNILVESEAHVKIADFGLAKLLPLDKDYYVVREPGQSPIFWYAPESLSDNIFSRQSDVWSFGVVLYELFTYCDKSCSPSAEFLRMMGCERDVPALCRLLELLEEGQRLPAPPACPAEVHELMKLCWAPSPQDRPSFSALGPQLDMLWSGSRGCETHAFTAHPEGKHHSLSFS", "experiment": "Biochemical JAK3 kinase assay (LanthaScreen)", "conditions": "not given", "in_short": "(§1)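 GST-JAK + GFP-STAT1 peptide, HEPES pH 7.5/MgCl2/EGTA/Brij-35 buffer; cpd preincubation 1 h RT; ATP start, 1 h RT; stop with 10 mM EDTA + 2 nM Tb-anti-pSTAT1; TR-FRET 520/495. 4-parameter IC50 → pKi (Cheng-Prusoff).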", "values": [
      {"smiles": "C=CC(=O)N1CC(CCn2c(=O)ccc3cnc(Nc4cnn(CC(F)F)c4)nc32)C1", "note": "[Example 20]", "JAK 3 (pKi)": "B (B represents pKi value between 9 and 10 (Ki between 1 nM and 0.1 nM))"},
      {"smiles": "C=CC(=O)N1CC(CCn2c(=O)ccc3cnc(Nc4cccc(N5CCOCC5)c4)nc32)C1", "note": "[Example 28]", "JAK 3 (pKi)": "B (B represents pKi value between 9 and 10 (Ki between 1 nM and 0.1 nM))"},
      {"smiles": "C=CC(=O)N1CC(CCn2c(=O)ccc3cnc(Nc4cnn(CCO)c4)nc32)C1", "note": "[Example 35]", "JAK 3 (pKi)": "B (B represents pKi value between 9 and 10 (Ki between 1 nM and 0.1 nM))"},
      {"smiles": "C=CC(=O)N1CC(CCn2c(=O)ccc3cnc(Nc4cnn(C(F)F)c4)nc32)C1", "note": "[Example 36]", "JAK 3 (pKi)": "B (B represents pKi value between 9 and 10 (Ki between 1 nM and 0.1 nM))"},
      {"smiles": "C=CC(=O)N1CC(CCn2c(=O)ccc3cnc(Nc4ccc(N5CCOCC5=O)cc4)nc32)C1", "note": "[Example 47]", "JAK 3 (pKi)": "B (B represents pKi value between 9 and 10 (Ki between 1 nM and 0.1 nM))"},
      {"smiles": "C=CC(=O)N1CC(CCn2c(=O)ccc3cnc(Nc4ccc(N5CCSCC5)nc4)nc32)C1", "note": "[Example 54]", "JAK 3 (pKi)": "B (B represents pKi value between 9 and 10 (Ki between 1 nM and 0.1 nM))"}
    ]},
    {"molecular_target": "JAK3 (Homo sapiens (Human), UniProt P52333)", "experiment": "Biochemical JAK3 kinase assay (LanthaScreen)", "conditions": "selectivity JAK3 over JAK1, difference of pKi", "in_short": "as §1", "values": [
      {"smiles": "C=CC(=O)N1CC(CCn2c(=O)ccc3cnc(Nc4cnn(CC(F)F)c4)nc32)C1", "note": "[Example 20]", "JAK3 (pKi)-JAK1 (pKi)": "A (A represents a value of 3 or above)"},
      {"smiles": "C=CC(=O)N1CC(CCn2c(=O)ccc3cnc(Nc4cccc(N5CCOCC5)c4)nc32)C1", "note": "[Example 28]", "JAK3 (pKi)-JAK1 (pKi)": "A (A represents a value of 3 or above)"},
      {"smiles": "C=CC(=O)N1CC(CCn2c(=O)ccc3cnc(Nc4cnn(CCO)c4)nc32)C1", "note": "[Example 35]", "JAK3 (pKi)-JAK1 (pKi)": "A (A represents a value of 3 or above)"},
      {"smiles": "C=CC(=O)N1CC(CCn2c(=O)ccc3cnc(Nc4cnn(C(F)F)c4)nc32)C1", "note": "[Example 36]", "JAK3 (pKi)-JAK1 (pKi)": "A (A represents a value of 3 or above)"},
      {"smiles": "C=CC(=O)N1CC(CCn2c(=O)ccc3cnc(Nc4ccc(N5CCOCC5=O)cc4)nc32)C1", "note": "[Example 47]", "JAK3 (pKi)-JAK1 (pKi)": "A (A represents a value of 3 or above)"},
      {"smiles": "C=CC(=O)N1CC(CCn2c(=O)ccc3cnc(Nc4ccc(N5CCSCC5)nc4)nc32)C1", "note": "[Example 54]", "JAK3 (pKi)-JAK1 (pKi)": "A (A represents a value of 3 or above)"}
    ]},
    {"test_system": "IL-2 stimulated STAT5 phosphorylation in Tall-1 human T cell line (JAK3)", "experiment": "Cellular JAK3 potency assay: inhibition of IL-2 stimulated pSTAT5 in Tall-1 T cells", "type": "cell-based", "conditions": "IL-2 stimulated pSTAT5, Tall-1 T cells", "in_short": "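AlphaLISA SureFire Ultra measures STAT5 Tyr694/699 phosphorylation in lysed Tall-1 human T cells. Cells were exposed to compound for 1 h at 37 °C before a 30 min IL-2 challenge (300 ng/ml final). Values are pIC50 means with standard deviation from signal-versus-concentration curves.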", "values": [
      {"smiles": "C=CC(=O)N1CC(CCn2c(=O)ccc3cnc(Nc4cnn(CC(F)F)c4)nc32)C1", "note": "[Example 20]", "Tall-1 (pIC50)": "C (C represents a pIC50 value between 6 and 6.7 (IC50 between 1 μM and 200 nM))"},
      {"smiles": "C=CC(=O)N1CC(CCn2c(=O)ccc3cnc(Nc4cccc(N5CCOCC5)c4)nc32)C1", "note": "[Example 28]", "Tall-1 (pIC50)": "C (C represents a pIC50 value between 6 and 6.7 (IC50 between 1 μM and 200 nM))"},
      {"smiles": "C=CC(=O)N1CC(CCn2c(=O)ccc3cnc(Nc4cnn(CCO)c4)nc32)C1", "note": "[Example 35]", "Tall-1 (pIC50)": "C (C represents a pIC50 value between 6 and 6.7 (IC50 between 1 μM and 200 nM))"},
      {"smiles": "C=CC(=O)N1CC(CCn2c(=O)ccc3cnc(Nc4cnn(C(F)F)c4)nc32)C1", "note": "[Example 36]", "Tall-1 (pIC50)": "C (C represents a pIC50 value between 6 and 6.7 (IC50 between 1 μM and 200 nM))"},
      {"smiles": "C=CC(=O)N1CC(CCn2c(=O)ccc3cnc(Nc4ccc(N5CCOCC5=O)cc4)nc32)C1", "note": "[Example 47]", "Tall-1 (pIC50)": "C (C represents a pIC50 value between 6 and 6.7 (IC50 between 1 μM and 200 nM))"},
      {"smiles": "C=CC(=O)N1CC(CCn2c(=O)ccc3cnc(Nc4ccc(N5CCSCC5)nc4)nc32)C1", "note": "[Example 54]", "Tall-1 (pIC50)": "C (C represents a pIC50 value between 6 and 6.7 (IC50 between 1 μM and 200 nM))"}
    ]},
    {"test_system": "Caco-2 cell monolayers", "experiment": "Caco-2 permeation assay", "type": "in vitro ADME", "conditions": "5 μM, A-B direction, with Verapamil (25 μM)", "method": "Assay 4: Caco-2 Permeation Assay\nThe Caco-2 permeation assay was performed to model the ability of test compounds to pass through the intestine and get into the blood stream after oral administration. The rate at which test compounds in solution permeate a cell monolayer designed to mimic the tight junction of human small intestinal monolayers was determined.\nCacoReady 24-well transwell plates were obtained from ADMEcell (Alameda, Calif.). The compounds were evaluated at a concentration of 5 μM from 10 mM DMSO stock solutions in duplicate (n=2). The passive permeability of the compounds tested was evaluated using Caco-2 cell monolayers along with Verapamil (25 μM) to inhibit P-gp transport proteins in the apical to basolateral (A-B) direction. The experiment was conducted in a 37° C., 5% CO2 incubator. Caco-2 culture media consisted of standard filtered DMEM, FCS 10%, L-Glutamine 1% and PenStrep 1%. Basal assay plate was prepared by adding 750 μL of transport buffer to A-B wells. A CacoReady™ plate was prepared by removing the Caco-2 media from the apical wells and replacing with fresh transport media (200 μL repeated for a total of 3 washes). Blank media (200 μL) was then replaced with diluted compound for A-B wells. To begin the incubation, the basal plate was removed from the incubator and the apical section was added on top of it. Samples (40 μL) were collected from the apical and basal compartments for time zero (t0). Samples were collected again after 120 minutes (t120) from the apical and basal compartments. All samples were diluted and prepared for bioanalysis by LC-MS/MS. The permeation coefficient (Kp, mean A to B+ Verapamil Papparent) in cm/sec was calculated as dQ (flux)/(dt×Area×concentration).\nIn this assay, a Kp value less than about 5×10^−6 cm/sec is considered favorable to minimize systemic exposure and target the colon. A Kp value less than about 10×10^−6 cm/sec may also be sufficient to minimize systemic exposure and target the colon.", "values": [
      {"smiles": "C=CC(=O)N1CC(CCn2c(=O)ccc3cnc(Nc4cnn(CC(F)F)c4)nc32)C1", "note": "[Example 20]", "Caco Kp": "B (B represents a value between 5×10^−6 and 10×10^−6 cm/sec)"},
      {"smiles": "C=CC(=O)N1CC(CCn2c(=O)ccc3cnc(Nc4cccc(N5CCOCC5)c4)nc32)C1", "note": "[Example 28]", "Caco Kp": "C (C represents a value between 10×10^−6 and 30×10^−6 cm/sec)"},
      {"smiles": "C=CC(=O)N1CC(CCn2c(=O)ccc3cnc(Nc4cnn(CCO)c4)nc32)C1", "note": "[Example 35]", "Caco Kp": "A (A represents a value below 5×10^−6 cm/sec)"},
      {"smiles": "C=CC(=O)N1CC(CCn2c(=O)ccc3cnc(Nc4cnn(C(F)F)c4)nc32)C1", "note": "[Example 36]", "Caco Kp": "C (C represents a value between 10×10^−6 and 30×10^−6 cm/sec)"},
      {"smiles": "C=CC(=O)N1CC(CCn2c(=O)ccc3cnc(Nc4ccc(N5CCOCC5=O)cc4)nc32)C1", "note": "[Example 47]", "Caco Kp": "A (A represents a value below 5×10^−6 cm/sec)"},
      {"smiles": "C=CC(=O)N1CC(CCn2c(=O)ccc3cnc(Nc4ccc(N5CCSCC5)nc4)nc32)C1", "note": "[Example 54]", "Caco Kp": "C (C represents a value between 10×10^−6 and 30×10^−6 cm/sec)"}
    ]},
    {"molecular_target": "JAK1 (Homo sapiens (Human), UniProt P23458)", "sequence (P23458 whole entry)": "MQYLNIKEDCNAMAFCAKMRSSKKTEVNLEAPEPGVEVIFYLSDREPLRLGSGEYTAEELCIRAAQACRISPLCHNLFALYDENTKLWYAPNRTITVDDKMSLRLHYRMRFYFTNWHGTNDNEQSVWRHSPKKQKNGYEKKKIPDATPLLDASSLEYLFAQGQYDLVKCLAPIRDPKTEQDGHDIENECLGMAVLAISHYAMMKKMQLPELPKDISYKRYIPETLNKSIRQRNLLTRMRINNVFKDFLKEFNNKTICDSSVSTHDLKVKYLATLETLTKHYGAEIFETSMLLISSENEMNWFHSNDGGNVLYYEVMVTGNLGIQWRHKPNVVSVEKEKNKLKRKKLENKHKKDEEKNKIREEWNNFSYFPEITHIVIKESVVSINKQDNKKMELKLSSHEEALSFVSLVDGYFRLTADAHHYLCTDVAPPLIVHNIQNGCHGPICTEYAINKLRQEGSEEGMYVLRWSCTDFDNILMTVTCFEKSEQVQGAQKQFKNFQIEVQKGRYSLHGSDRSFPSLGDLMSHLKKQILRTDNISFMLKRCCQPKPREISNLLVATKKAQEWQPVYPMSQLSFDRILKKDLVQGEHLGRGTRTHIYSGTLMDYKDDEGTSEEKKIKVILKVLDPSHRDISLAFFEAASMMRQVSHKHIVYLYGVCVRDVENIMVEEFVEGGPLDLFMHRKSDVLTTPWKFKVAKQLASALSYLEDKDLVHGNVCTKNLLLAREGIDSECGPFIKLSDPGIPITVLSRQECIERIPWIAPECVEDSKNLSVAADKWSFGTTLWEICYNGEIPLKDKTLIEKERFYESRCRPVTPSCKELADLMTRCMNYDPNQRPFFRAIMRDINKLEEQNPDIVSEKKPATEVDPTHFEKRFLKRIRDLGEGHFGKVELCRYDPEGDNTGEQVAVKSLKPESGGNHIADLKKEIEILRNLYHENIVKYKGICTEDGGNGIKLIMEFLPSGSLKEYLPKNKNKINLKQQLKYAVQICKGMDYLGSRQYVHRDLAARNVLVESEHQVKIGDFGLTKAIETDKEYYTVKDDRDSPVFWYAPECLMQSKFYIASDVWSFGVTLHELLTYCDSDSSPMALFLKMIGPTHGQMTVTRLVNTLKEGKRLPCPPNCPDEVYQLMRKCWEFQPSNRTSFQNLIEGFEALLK", "experiment": "Biochemical JAK1 kinase assay (LanthaScreen)", "conditions": "not given", "in_short": "as §1", "values": [
      {"smiles": "C=CC(=O)N1CC(CCn2c(=O)ccc3cnc(Nc4cnn(CC(F)F)c4)nc32)C1", "note": "[Example 20]", "JAK 1 (pKi)": "E (E represents a pKi value of 7 or below (Ki of 100 nM or above))"},
      {"smiles": "C=CC(=O)N1CC(CCn2c(=O)ccc3cnc(Nc4cccc(N5CCOCC5)c4)nc32)C1", "note": "[Example 28]", "JAK 1 (pKi)": "E (E represents a pKi value of 7 or below (Ki of 100 nM or above))"},
      {"smiles": "C=CC(=O)N1CC(CCn2c(=O)ccc3cnc(Nc4cnn(CCO)c4)nc32)C1", "note": "[Example 35]", "JAK 1 (pKi)": "E (E represents a pKi value of 7 or below (Ki of 100 nM or above))"},
      {"smiles": "C=CC(=O)N1CC(CCn2c(=O)ccc3cnc(Nc4cnn(C(F)F)c4)nc32)C1", "note": "[Example 36]", "JAK 1 (pKi)": "E (E represents a pKi value of 7 or below (Ki of 100 nM or above))"},
      {"smiles": "C=CC(=O)N1CC(CCn2c(=O)ccc3cnc(Nc4ccc(N5CCOCC5=O)cc4)nc32)C1", "note": "[Example 47]", "JAK 1 (pKi)": "E (E represents a pKi value of 7 or below (Ki of 100 nM or above))"},
      {"smiles": "C=CC(=O)N1CC(CCn2c(=O)ccc3cnc(Nc4ccc(N5CCSCC5)nc4)nc32)C1", "note": "[Example 54]", "JAK 1 (pKi)": "E (E represents a pKi value of 7 or below (Ki of 100 nM or above))"}
    ]}
  ]
}
